Experimental findings from ChEMBL document CHEMBL1135541, “Synthesis, biological properties, and molecular modeling investigation of the first potent, selective, and water-soluble human A(3) adenosine receptor antagonist” (J Med Chem, 2002) are described below.

The target in one experiment is T1, Adenosine receptor A1 (Rattus norvegicus, UniProt P25099).
T1 sequence (P25099 whole entry): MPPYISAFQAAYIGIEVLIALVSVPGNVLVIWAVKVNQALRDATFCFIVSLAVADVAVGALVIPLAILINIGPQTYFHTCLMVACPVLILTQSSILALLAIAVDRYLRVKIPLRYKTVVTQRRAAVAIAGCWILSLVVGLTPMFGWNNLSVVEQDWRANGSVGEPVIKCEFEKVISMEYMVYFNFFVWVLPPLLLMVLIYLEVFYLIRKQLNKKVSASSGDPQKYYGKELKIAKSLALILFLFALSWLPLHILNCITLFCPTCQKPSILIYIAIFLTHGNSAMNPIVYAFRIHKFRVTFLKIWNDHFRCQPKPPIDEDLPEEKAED
The experiment is described as follows: Binding affinity against rat adenosine A1 receptor […]. The format is cell-based.

Experiment [1] has as its target T2, Adenosine receptor A3 (Rattus norvegicus, UniProt P28647).
T2 sequence (P28647 whole entry): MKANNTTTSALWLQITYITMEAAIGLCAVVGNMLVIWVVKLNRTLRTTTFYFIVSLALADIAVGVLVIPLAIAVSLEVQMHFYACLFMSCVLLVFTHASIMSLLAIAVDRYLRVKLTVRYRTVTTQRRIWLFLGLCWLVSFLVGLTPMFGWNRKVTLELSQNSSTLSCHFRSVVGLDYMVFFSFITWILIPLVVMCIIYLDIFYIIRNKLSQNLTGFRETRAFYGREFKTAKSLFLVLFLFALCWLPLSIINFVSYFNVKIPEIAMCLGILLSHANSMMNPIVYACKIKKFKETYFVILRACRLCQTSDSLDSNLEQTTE
Kind of experiment: Binding affinity against rat adenosine A3 receptor in RBL-2H3 cells. The format is cell-based.

The next experiment concerns the target Adenosine receptor A2a (Rattus norvegicus, UniProt P30543). Kind of experiment: Binding affinity against rat adenosine A2A receptor […]. The class given is cell-based.
Experiment [2] in a line: The hydrophobicity was measured in reverse-phase TLC experiments and reported as Rm values; Rm = log(1/Rf - 1).
In experiment [3] the target is T3, Adenosine receptor A3 (Rattus norvegicus) (UniProt P28647).
T3 sequence (whole entry): T2 sequence (P28647 whole entry)
As to conditions: RBL-2H3, 1 uM.
Description: Inhibitory activity against binding of [125I]I-AB-MECA to Adenosine A3 receptor in membranes of rat basophilic RBL-2H3 cells at 1 uM

Experiment [4] has as its target T4, Adenosine receptor A3 (Homo sapiens) (UniProt P0DMS8).
T4 sequence (whole entry): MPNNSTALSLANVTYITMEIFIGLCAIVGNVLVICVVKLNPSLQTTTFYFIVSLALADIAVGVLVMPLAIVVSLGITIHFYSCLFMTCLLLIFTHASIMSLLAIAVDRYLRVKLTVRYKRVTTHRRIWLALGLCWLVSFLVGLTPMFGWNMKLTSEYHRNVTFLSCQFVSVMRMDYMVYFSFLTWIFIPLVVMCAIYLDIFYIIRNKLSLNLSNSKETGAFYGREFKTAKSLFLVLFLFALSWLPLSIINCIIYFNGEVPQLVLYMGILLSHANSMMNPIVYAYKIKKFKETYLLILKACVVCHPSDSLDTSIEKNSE
The settings on record: CHO.
Description: Antagonistic activity against Cl-IB-MECA26-induced inhibition of forskolin-stimulated cAMP in CHO cells expressing human Adenosine A3 receptor

The target of experiment [5] is Adenosine receptors; A1 & A3 (Homo sapiens) (UniProt P30542+P0DMS8). Kind of experiment: Selectivity as ratio of Ki for human adenosine A1 and A3 receptors. The format is protein assay.
The target in experiment [6] is Adenosine receptors; A2a & A3 (Homo sapiens) (UniProt P0DMS8+P29274). Kind of experiment: Selectivity as ratio of Ki for human adenosine A2A and A3 receptors. The format is protein assay.
Chain of Adenosine receptors; A2a & A3 (Homo sapiens) (P29274 whole entry, looked up, one chain of several): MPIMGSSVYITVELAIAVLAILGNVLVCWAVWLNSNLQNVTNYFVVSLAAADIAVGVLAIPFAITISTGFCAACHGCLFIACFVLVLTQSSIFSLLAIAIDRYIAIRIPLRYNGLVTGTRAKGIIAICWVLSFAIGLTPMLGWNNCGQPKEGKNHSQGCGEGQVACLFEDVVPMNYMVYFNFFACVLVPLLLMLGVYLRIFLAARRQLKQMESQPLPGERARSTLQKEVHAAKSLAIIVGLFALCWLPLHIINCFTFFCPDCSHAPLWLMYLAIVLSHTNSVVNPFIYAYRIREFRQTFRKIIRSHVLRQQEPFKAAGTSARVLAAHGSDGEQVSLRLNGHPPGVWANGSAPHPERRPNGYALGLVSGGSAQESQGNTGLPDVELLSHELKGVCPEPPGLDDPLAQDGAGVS
In experiment [7] the target is Adenosine receptors; A2b & A3 (Homo sapiens) (UniProt P29275+P0DMS8). The experiment is described as follows: Selectivity as ratio of Ki for human A2b and A3 receptors. The class given is protein assay.
Experiment [8] has as its target T5, Adenosine receptor A3 (Homo sapiens, UniProt P0DMS8).
T5 sequence (P0DMS8 whole entry): T4 sequence (whole entry)
Kind of experiment: Inhibitory activity against Human Adenosine A3 receptor expressed in CHO cells. The class given is cell-based.

Some results are limits rather than exact numbers.

Chain of Adenosine receptor A2a (P30543 whole entry): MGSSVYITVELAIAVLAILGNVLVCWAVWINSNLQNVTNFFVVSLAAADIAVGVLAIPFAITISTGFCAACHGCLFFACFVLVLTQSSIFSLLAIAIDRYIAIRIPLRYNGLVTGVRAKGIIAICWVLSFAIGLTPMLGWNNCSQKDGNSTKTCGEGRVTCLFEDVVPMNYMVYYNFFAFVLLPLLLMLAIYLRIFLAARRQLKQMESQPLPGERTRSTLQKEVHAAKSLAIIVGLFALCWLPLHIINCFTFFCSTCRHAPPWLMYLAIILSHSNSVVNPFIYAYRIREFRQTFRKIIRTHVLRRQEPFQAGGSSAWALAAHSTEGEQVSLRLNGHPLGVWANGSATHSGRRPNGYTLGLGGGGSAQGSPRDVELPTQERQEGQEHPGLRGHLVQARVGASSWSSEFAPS

As to `Cn1cc2c(nc(NC(=O)Nc3ccncc3)n3nc(-c4ccco4)nc23)n1`, the Ki – broadly, the dissociation constant of the complex between target and ligand, obtained from inhibition or displacement – at Adenosine receptor A1 was 226 nM; at Adenosine receptor A3 [1], over 1000 nM; at Adenosine receptor A2a, 97.6 nM. In experiment [2], this compound returned a Rm of 3.06. The inhibition (as a rule, the change of the read-out against control, counted positive when it falls) in experiment [3] was 35%. In addition, in experiment [4], the K B amounted to 0.2 nM.

Turning to `Cn1cc2c(nc(NC(=O)Nc3ccc(S(=O)(=O)O)cc3)n3nc(-c4ccco4)nc23)n1`, the Selectivity is over 400 in [5], 24 in experiment [6] and over 400 in [7].

Regarding `Cn1cc2c(nc(NC(=O)Nc3ccccc3)n3nc(-c4ccco4)nc23)n1`, the IC50 (in general, the concentration that inhibits the measured activity by half) against Adenosine receptor A3 [8] is 2.1 nM. For the same compound, the values for the Selectivity in experiment [5], in experiment [6] and in experiment [7] were 3710, 2380 and 1390, respectively.
